Data published in patent publication US9265744B2, “Fulvic acid and antibiotic combination for the inhibition or treatment of multi-drug resistant bacteria” (NATRACINE UK LIMITED, priority 2012, dated 2016).

Tested on: Klebsiella pneumoniae (ATCC BAA2146 NDM-1+)
Assay: Neutropenic mouse thigh model of K. pneumoniae infection
Format: in vivo, mouse (CD1)
Details: IV 2X daily; for Group Ave. Log 10 cfu/g / Group Average (cfu/g), thigh tissue burden / Log reduction from vehicle: 24 h post infection; for No. Sterilised (5 or less colonies detected on neat plate): n = 12 thighs
Text: Mice used in this study were supplied by Charles River UK and were specific pathogen free. The strain of mouse used was CD1, which is a well characterized outbred strain. Mice were 16-18 g on receipt at Euprotec's facility and were allowed to acclimatize for 7 days (target weight at the start of the experiment 22-25 g).
Klebsiella pneumoniae (ATCC BAA2146 NDM-1^+ (blandm) was used throughout the study.
In this study, 6 mice were used in each treatment group. • b) Immunosuppression
Mice were rendered temporarily neutropenic by immunosuppression with cyclophosphamide at 150 mg/kg four days before infection and 100 mg/kg one day before infection by intraperitoneal injection. The immunosuppression regime leads to neutropenia starting 24 hours post administration which continues throughout the study. • c) Infection
Antibacterial treatment was initiated 2 hours post infection (Table 3) and was administered twice (exactly 12 hours apart). An aliquot of 4% CHD-FA stock solution as adjusted to pH 5 with 10 M sodium hydroxide solution then diluted either 1:2 or 1:8 with 0.9% saline to give a dosing solution of 2% (200 mg/kg) and 0.5% (50 mg/kg) CHD-FA respectively.
Colistin was diluted in 0.9% saline to give a dosing solution of 4 mg/ml (40 mg/kg). Meropenem was diluted in 0.9% saline to give a dosing solution of 3 mg/ml (30 mg/kg). The vehicle was 0.9% saline. Following reconstitution, the suspensions were vortexed to ensure complete dissolution.
CHD-FA was administered by gavage, whereas Colistin, Meropenem and the vehicle were administered IV at 10 ml/kg (requiring individual mice to be administered ˜0.25 ml/dose). • e) Endpoints
24 hours post infection, the clinical condition of all animals was assessed prior to them being humanely euthanized. Animal weight was determined before both thighs were removed and weighed individually. Individual thigh tissue samples were homogenized in ice cold sterile phosphate buffered saline. Thigh homogenates were then quantitatively cultured on to CLED agar and incubated at 37° C. for 24 hrs and colonies counted daily. • f) Statistical Analysis
Quantitative thigh tissue burden data for CHD-FA were analysed using the statistical test Kruskal Wallis test (corrected for multiple comparisons) and compared to Colistin, Meropenem and vehicle monotherapy, plus Colistin/CHD-FA and Meropenem/CHD-FA combinations.

Molecule | Group Ave. Log 10 cfu/g (Meropenem 30 mg/kg) | Group Average (cfu/g), thigh tissue burden (Meropenem 30 mg/kg) | Log reduction from vehicle (Meropenem 30 mg/kg) | No. Sterilised (5 or less colonies detected on neat plate) (Meropenem 30 mg/kg) | Group Ave. Log 10 cfu/g (Colistin 40 mg/kg) | Group Average (cfu/g), thigh tissue burden (Colistin 40 mg/kg) | Log reduction from vehicle (Colistin 40 mg/kg) | No. Sterilised (5 or less colonies detected on neat plate) (Colistin 40 mg/kg)
C[C@@H](O)[C@H]1C(=O)N2C(C(=O)O)=C(S[C@@H]3CN[C@H](C(=O)N(C)C)C3)[C@H](C)[C@H]12 [Meropenem] | 9.67 Log 10 cfu/g | 4729505542 cfu/g | 1.74 log 10 | 0 | – | – | – | –
Colistin | – | – | – | – | 9.14 Log 10 cfu/g | 1388363808 cfu/g | 2.27 log 10 | 0
